Measurements as given in patent US20190255073A1, “ESTERS OF 3-POLYAMINE DERIVATIVES OF BILE ACIDS FOR THE TREATMENT OF INFECTIONS” (VIRBAC, priority 2016, published 2019).
≈ marks a conversion by molar mass, not a printed value.

How the values were obtained:
Format in all cases: cell-based, Pseudomonas aeruginosa
[1] = system: P. aeruginosa ATCC27853; experiment: MIC determination by microplate dilution, P. aeruginosa human strain; details: Pseudomonas aeruginosa, ATCC27853, Gram-negative, Mueller-Hinton medium, 24 h, 37° C.
Outline: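 Bacteria were precultured 24 h at 37 °C, standardised by OD600 and seeded into Mueller-Hinton broth at OD 0.01 per well. Test compounds, from a 5 mg/mL DMSO/methanol stock, were diluted two-fold across the plate. After 24 h humid incubation at 37 °C, absorbance at 620 nm gave the MIC.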

[2] = system: P. aeruginosa (1051575); experiment: Potentiation of erythromycin activity; details: concentration of compound required with erythromycin 2 μg/mL
Description: This method requires the use of a 96-well plate: 100 μL of a liquid culture medium are placed in each well and then seeded with the microbial suspension prepared previously. The required volume to be seeded is calculated for an OD of 0.01, which corresponds to about 5×10^6 bacteria in each well. In this plate, the first line corresponds to a negative control (200 μL of sterile culture medium in each well), the second line corresponds to a positive control (100 μL of sterile culture medium+100 μL of the bacterial suspension), and the third line contains 192 μL of culture medium; 8 μL of compound of formula (I) to be tested are placed in each well. Thereafter, a cascade dilution is performed from this line. […] (1 mg dissolved in 20 mL) are then added to each well of the lines 3 to 8 to obtain a final antibiotic concentration of 2 μg/mL. 92 μL of bacterial suspension are then added to lines 3 to 8. […] After 24 hours of incubation at 37° C., 40 μL of nitro tetrazolium iodide are added to each well to reveal the presence of live bacteria by staining the medium pink.
The procedure is identical to that indicated in Example 5 above. 8 μL of an antibiotic solution under consideration (1 mg dissolved in 20 mL) are added to obtain a final antibiotic concentration of 2 μg/mL instead of 8 μL of a doxycycline solution.
The results are given in table V. They indicate the concentration of compound of formula (I) required to be able to restore the activity of the antibiotic under consideration.

[3] = system: P. aeruginosa (1051575); experiment: Potentiation of the doxycycline activity at 2 μg/mL; details: in combination with doxycycline 2 μg/mL; 24 h, 37°

## CC(C)OC(=O)CC[C@@H](C)[C@H]1CCC2C3C(CC[C@@]21C)[C@@]1(C)CC[C@H](NCCCN(CCCN)CCCN)CC1C[C@H]3O (stereo partly drawn) [(39), isopropyl 3β-(tris(3-aminopropyl)amine)chenodeoxycholate]
[1]
  MIC: 28 µg/mL (≈ 46.3 µM)
[2]
  MIC P. aeruginosa (1051575), compound + erythromycin: 30 µg/mL
[3]
  MIC - P. aeruginosa (1051575): content of compound of formula (I) to restore the doxycycline activity (at 2 μg/mL): 2 µg/mL
